Assay results reported in patent publication US12269831B2, “Modulators of cystic fibrosis transmembrane conductance regulator” (Vertex Pharmaceuticals Incorporated, priority 2020, dated 2025).

target: T1, CFTR (F508del/MF-HBE cells) (Homo sapiens, UniProt P13569, DEL508-508); assay: Ussing chamber assay of CFTR-mediated short-circuit currents (potentiator identification); type: cell-based; settings: CFTR-mediated Isc, 18-24 h incubation at 37° C. with 10 μM (14S)-8-[3-(2-{dispiro[2.0.2.1]heptan-7-yl}ethoxy)-1H-pyrazol-1-yl]-... corrector, 20% human serum
T1 construct: human bronchial epithelial (HBE) cells derived from CF subjects heterozygous for F508del and a minimal function CFTR mutation (F508del/MF-HBE); endogenous in cells; host or cells: primary human bronchial epithelial (HBE) cells from CF subjects, genotype F508del/minimal function
T1 sequence (P13569 with tags, fused parts or gaps DEL508-508): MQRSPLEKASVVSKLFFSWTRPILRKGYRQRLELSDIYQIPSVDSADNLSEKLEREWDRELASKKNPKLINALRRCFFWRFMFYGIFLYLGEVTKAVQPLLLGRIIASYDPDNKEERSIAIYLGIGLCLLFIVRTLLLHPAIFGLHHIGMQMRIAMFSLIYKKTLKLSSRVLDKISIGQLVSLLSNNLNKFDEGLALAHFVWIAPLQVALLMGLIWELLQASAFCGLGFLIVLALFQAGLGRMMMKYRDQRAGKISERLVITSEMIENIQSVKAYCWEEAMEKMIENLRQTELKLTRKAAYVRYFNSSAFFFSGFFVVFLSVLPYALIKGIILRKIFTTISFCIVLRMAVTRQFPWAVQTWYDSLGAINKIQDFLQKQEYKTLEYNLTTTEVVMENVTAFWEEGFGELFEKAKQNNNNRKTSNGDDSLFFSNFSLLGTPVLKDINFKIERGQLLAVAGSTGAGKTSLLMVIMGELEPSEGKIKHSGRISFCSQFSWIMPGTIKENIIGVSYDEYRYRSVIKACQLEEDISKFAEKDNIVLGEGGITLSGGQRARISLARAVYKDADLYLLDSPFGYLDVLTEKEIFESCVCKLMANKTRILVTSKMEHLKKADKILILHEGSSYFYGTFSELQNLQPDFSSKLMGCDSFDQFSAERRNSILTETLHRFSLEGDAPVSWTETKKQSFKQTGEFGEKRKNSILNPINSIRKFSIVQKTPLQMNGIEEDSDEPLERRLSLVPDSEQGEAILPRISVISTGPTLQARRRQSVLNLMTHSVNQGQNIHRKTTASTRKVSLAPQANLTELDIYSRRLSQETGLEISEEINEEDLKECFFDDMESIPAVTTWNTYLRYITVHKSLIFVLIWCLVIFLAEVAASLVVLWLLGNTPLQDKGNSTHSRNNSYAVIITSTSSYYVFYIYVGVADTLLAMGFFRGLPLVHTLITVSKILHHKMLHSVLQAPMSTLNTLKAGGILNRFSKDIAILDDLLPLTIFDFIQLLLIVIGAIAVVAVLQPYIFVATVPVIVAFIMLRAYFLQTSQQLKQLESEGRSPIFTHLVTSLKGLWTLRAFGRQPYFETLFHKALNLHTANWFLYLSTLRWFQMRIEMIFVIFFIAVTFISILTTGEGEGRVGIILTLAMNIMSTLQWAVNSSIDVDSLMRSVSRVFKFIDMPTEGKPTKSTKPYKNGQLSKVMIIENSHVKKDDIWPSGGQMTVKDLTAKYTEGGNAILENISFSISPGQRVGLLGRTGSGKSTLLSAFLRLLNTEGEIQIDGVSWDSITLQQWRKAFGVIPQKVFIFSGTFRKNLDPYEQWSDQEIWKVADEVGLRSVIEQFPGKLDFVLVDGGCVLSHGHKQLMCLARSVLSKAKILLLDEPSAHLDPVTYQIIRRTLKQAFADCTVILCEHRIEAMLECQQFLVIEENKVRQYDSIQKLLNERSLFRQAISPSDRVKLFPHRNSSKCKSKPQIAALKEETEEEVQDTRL
Experimental: Ussing Chamber Assay of CFTR-Mediated Short-Circuit Currents
Ussing chamber experiments were performed using human bronchial epithelial (HBE) cells derived from CF subjects heterozygous for F508del and a minimal function CFTR mutation (F508del/MF-HBE) and cultured as previously described (Neuberger T, Burton B, Clark H, Van Goor F Methods Mol Biol 2011:741:39-54). After four days the apical media was removed, and the cells were grown at an air liquid interface for >14 days prior to use.
To isolate the CFTR-mediated short-circuit (Isc) current, F508del/MF-HBE grown on Costar® Snapwell™ cell culture inserts were mounted in an Ussing chamber and the transepithelial ISC was measured under voltage-clamp recording conditions (Vhold=0 mV) at 37° C. The basolateral solution contained (in mM) 145 NaCl, 0.83 K2HPO4, 3.3 KH2PO4, 1.2 MgCl2, 1.2 CaCl2, 10 Glucose, 10 HEPES (pH adjusted to 7.4 with NaOH) and the apical solution contained (in mM) 145 NaGluconate, 1.2 MgCl2, 1.2 CaCl2, 10 glucose, 10 HEPES (pH adjusted to 7.4 with NaOH) and 30 μM amiloride to block the epithelial sodium channel. Forskolin (20 μM) was added to the apical surface to activate CFTR, followed by apical addition of a CFTR inhibitor cocktail consisting of BPO, GlyH-101 and CFTR inhibitor 172 (each at 20 μM final assay concentration) to specifically isolate CFTR currents. The CFTR-mediated Isc (μA/cm^2) for each condition was determined from the peak forskolin response to the steady-state current following inhibition.
Identification of Potentiator Compounds
The activity of the CFTR potentiator compounds on the CFTR-mediated Isc was determined in Ussing chamber studies as described above. The F508del/MF-HBE cell cultures were incubated with the potentiator compounds at a range of concentrations in combination with 10 μM (14S)-8-[3-(2-{dispiro[2.0.2.1]heptan-7-yl}ethoxy)-1H-pyrazol-1-yl]-12,12-dimethyl-2λ^6-thia-3,9,11,18,23-pentaazatetracyclo[17.3.1.111,14.05,10]tetracosa-1(22),5,7,9,19(23),20-hexaene-2,2,4-trione for 18-24 hours at 37° C. and in the presence of 20% human serum. The concentration of potentiator compounds and (14S)-8-[3-(2-{dispiro[2.0.2.1]heptan-7-yl}ethoxy)-1H-pyrazol-1-yl]-12,12-dimethyl-2λ^6-thia-3,9,11,18,23-pentaazatetracyclo[17.3.1.111,14.05,10]tetracosa-1(22),5,7,9,19(23),20-hexaene-2,2,4-trione used during the 18-24 hours incubations was kept constant throughout the Ussing chamber measurement of the CFTR-mediated Isc to ensure compounds were present throughout the entire experiment. The efficacy and potency of the putative F508del potentiators was compared to that of the known Vertex potentiator, ivacaftor (N-[2,4-bis(1,1-dimethylethyl)-5-hydroxyphenyl]-1,4-dihydro-4-oxoquinoline-3-carboxamide).

SMILES | EC50
Nc1cc(C(F)(F)F)c2nc1-c1nnc(o1)C(O)(C(F)(F)F)CCCCc1cccc(c1)O2 (single isomer, unassigned) [Compound 27, 20-amino-6,18-bis(trifluoromethyl)-16,23-dioxa-3,4,21-triazatetracyclo[15.3.1.12,5.111,15]tricosa-1(21),2,4,11(22),12,14,17,19-octaen-6-ol] | < 500 nM
C[C@@H]1CCCCC(O)C(O)(C(F)(F)F)C2=NN=C(O2)c2nc(c(C(F)(F)F)cc2N)O1 (single isomer, unassigned) [Compound 56] | > 1000 nM
Nc1cc(C(F)(F)F)c2nc1-c1nnc(o1)[C@@](O)(C(F)(F)F)CCCCCCS2(=O)=O (single isomer, unassigned) [Compound 9] | < 500 nM
OC1(C(F)(F)F)CCCCCCOc2nc(ccc2C(F)(F)F)C2=NN=C1O2 (racemic) [Compound 1, 6,15-bis(trifluoromethyl)-13,19-dioxa-3,4,18-triazatricyclo[12.3.1.12,5]nonadeca-1(17),2,4,14(18),15-pentaen-6-ol] | > 1000 nM
C[C@@H]1CC(O)CCC[C@](O)(C(F)(F)F)C2=NN=C(O2)c2nc(c(C(F)(F)F)cc2N)O1 (single isomer, unassigned) [Compound 46] | < 500 nM
Nc1cc(C(F)(F)F)c2nc1-c1nnc(o1)[C@@](O)(C(F)(F)F)CCCCCC(CC1CC1)O2 (single isomer, unassigned) [Compound 48] | < 500 nM
C[C@@H]1COCCC[C@](O)(C(F)(F)F)C2=NN=C(O2)c2nc(c(C(F)(F)F)cc2N)O1 [Compound 59, (6R,12R)-17-amino-12-methyl-6,15-bis(trifluoromethyl)-10,13,19-trioxa-3,4,18-triazatricyclo[12.3.1.12,5]nonadeca-1(18),2,4,14,16-pentaen-6-ol] | > 1000 nM
C[C@@H]1CCC(O)CC[C@](O)(C(F)(F)F)C2=NN=C(O2)c2nc(c(C(F)(F)F)cc2N)O1 (single isomer, unassigned) [Compound 42] | < 500 nM
C[C@H]1CCCCC[C@@](O)(C(F)(F)F)C2=NN=C(O2)c2nc(c(C(F)(F)F)cc2N)O1 [Compound 13, (6S,12S)-17-amino-12-methyl-6,15-bis(trifluoromethyl)-13,19-dioxa-3,4,18-triazatricyclo[12.3.1.12,5]nonadeca-1(18),2,4,14,16-pentaen-6-ol] | < 500 nM
CC1CCC(O)(C(F)(F)F)C2=NN=C(O2)c2nc(c(C(F)(F)F)cc2N)Oc2cccc1c2 (stereo not drawn) [Compound 29, 19-amino-9-methyl-6,17-bis(trifluoromethyl)-15,22-dioxa-3,4,20-triazatetracyclo[14.3.1.12,5.110,14]docosa-1(20),2,4,10(21),11,13,16,18-octaen-6-ol] | < 500 nM
C[C@@H]1CC(=O)CCC[C@](O)(C(F)(F)F)C2=NN=C(O2)c2nc(c(C(F)(F)F)cc2N)O1 [Compound 25, (6R,12R)-17-amino-6-hydroxy-12-methyl-6,15-bis(trifluoromethyl)-13,19-dioxa-3,4,18-triazatricyclo[12.3.1.12,5]nonadeca-1(18),2,4,14,16-pentaen-10-one] | > 1000 nM
OC1(C(F)(F)F)CCCCCCOc2nc(ccc2C(F)(F)F)C2=NN=C1O2 (single isomer, unassigned) [Compound 3, 6,15-bis(trifluoromethyl)-13,19-dioxa-3,4,18-triazatricyclo[12.3.1.12,5]nonadeca-1(17),2,4,14(18),15-pentaen-6-ol] | > 1000 nM
Nc1cc(C(F)(F)F)c2nc1-c1nnc(o1)[C@@](O)(C(F)(F)F)CCCCCCS2 [Compound 21, (6R)-17-Amino-6,15-bis(trifluoromethyl)-19-oxa-13-thia-3,4,18-triazatricyclo[12.3.1.12,5]nonadeca-1(18),2,4,14,16-pentaen-6-ol] | < 500 nM
Nc1cc(C(F)(F)F)c2nc1-c1nnc(o1)[C@@](O)(C(F)(F)F)CCCCCC(Cc1ccc(F)cc1)O2 (single isomer, unassigned) [Compound 50] | < 500 nM
C[C@@H]1CCCC(O)C[C@](O)(C(F)(F)F)C2=NN=C(O2)c2nc(c(C(F)(F)F)cc2N)O1 (single isomer, unassigned) [Compound 53] | < 500 nM
Nc1cc(C(F)(F)F)c2nc1-c1nnc(o1)[C@@](O)(C(F)(F)F)CCCCC[S+]2[O-] (single isomer, unassigned) [Compound 24] | > 1000 nM
CC(C)(C)c1cccc(CC2CCCCC[C@](O)(C(F)(F)F)C3=NN=C(O3)c3nc(c(C(F)(F)F)cc3N)O2)c1 (single isomer, unassigned) [Compound 52] | < 500 nM
C[C@@H]1CCCCC(O)C(O)(C(F)(F)F)C2=NN=C(O2)c2nc(c(C(F)(F)F)cc2N)O1 (single isomer, unassigned) [Compound 62] | < 500 nM
CC(C)C1CCCCC[C@](O)(C(F)(F)F)C2=NN=C(O2)c2nc(c(C(F)(F)F)cc2N)O1 (single isomer, unassigned) [Compound 35] | < 500 nM
[2H]C1CC[C@](O)(C(F)(F)F)C2=NN=C(O2)c2nc(c(C(F)(F)F)cc2N)O[C@H](C)CC1[2H] (stereo partly drawn) [Compound 38, (6R,12R)-17-amino-9,10-dideuterio-12-methyl-6,15-bis(trifluoromethyl)-13,19-dioxa-3,4,18-triazatricyclo[12.3.1.12,5]nonadeca-1(18),2,4,14,16-pentaen-6-ol] | < 500 nM
C[C@H]1Oc2nc(c(N)cc2C(F)(F)F)C2=NN=C(O2)[C@@](O)(C(F)(F)F)CCCCC1O (single isomer, unassigned) [Compound 41] | < 500 nM
Nc1cc(C(F)(F)F)c2nc1-c1nnc(o1)[C@@](O)(C(F)(F)F)CCCCCS2 [Compound 22, (6R)-16-amino-6,14-bis(trifluoromethyl)-18-oxa-12-thia-3,4,17-triazatricyclo[11.3.1.12,5]octadeca-1(17),2,4,13,15-pentaen-6-ol] | < 500 nM
C[C@@H]1CCC(=O)CC[C@](O)(C(F)(F)F)C2=NN=C(O2)c2nc(c(C(F)(F)F)cc2N)O1 [Compound 26, (6R,12R)-17-amino-6-hydroxy-12-methyl-6,15-bis(trifluoromethyl)-13,19-dioxa-3,4,18-triazatricyclo[12.3.1.12,5]nonadeca-1(18),2,4,14,16-pentaen-9-one] | < 500 nM
Nc1cc(C(F)(F)F)c2nc1-c1nnc(o1)[C@@](O)(C(F)(F)F)CCCCCC(CC1CC1)O2 (single isomer, unassigned) [Compound 47] | < 500 nM
[2H]C1CC[C@@H](C)Oc2nc(c(N)cc2C(F)(F)F)C2=NN=C(O2)[C@@](O)(C(F)(F)F)CC1[2H] (stereo partly drawn) [Compound 44, (6R,12R)-17-amino-8,9-dideuterio-12-methyl-6,15-bis(trifluoromethyl)-13,19-dioxa-3,4,18-triazatricyclo[12.3.1.12,5]nonadeca-1(17),2,4,14(18),15-pentaen-6-ol] | < 500 nM
Nc1cc(C(F)(F)F)c2nc1-c1nnc(o1)C(O)(C(F)(F)F)CCCCc1cccc(c1)O2 (single isomer, unassigned) [Compound 28, 20-amino-6,18-bis(trifluoromethyl)-16,23-dioxa-3,4,21-triazatetracyclo[15.3.1.12,5.111,15]tricosa-1(21),2,4,11(22),12,14,17,19-octaen-6-ol] | > 1000 nM
Nc1cc(C(F)(F)F)c2nc1-c1nnc(o1)C(O)(C(F)(F)F)CCCCCCO2 (racemic) [Compound 4, 17-Amino-6,15-bis(trifluoromethyl)-13,19-dioxa-3,4,18-triazatricyclo[12.3.1.12,5]nonadeca-1(18),2,4,14,16-pentaen-6-ol] | < 500 nM
